Measurements reported in patent US20030203975A1, “Anti-cancer agents” (priority 1998, published 2003).

Tests used:
[1] = tested on: MAC 15A adenocarcinoma of the colon; assay: In vitro chemosensitivity against MAC 15A adenocarcinoma (MTT assay); type: cell-based; details: Mus musculus, MAC15A, 96 hours continuous exposure
Topoisomerase I [2] = target: T1, Topoisomerase I (Homo sapiens, UniProt P11387); assay: Topo I relaxation assay; type: biochemical; details: unit not given; compound at 1, 10, 25 and 50 μM in protocol
T1 sequence (P11387 1-765): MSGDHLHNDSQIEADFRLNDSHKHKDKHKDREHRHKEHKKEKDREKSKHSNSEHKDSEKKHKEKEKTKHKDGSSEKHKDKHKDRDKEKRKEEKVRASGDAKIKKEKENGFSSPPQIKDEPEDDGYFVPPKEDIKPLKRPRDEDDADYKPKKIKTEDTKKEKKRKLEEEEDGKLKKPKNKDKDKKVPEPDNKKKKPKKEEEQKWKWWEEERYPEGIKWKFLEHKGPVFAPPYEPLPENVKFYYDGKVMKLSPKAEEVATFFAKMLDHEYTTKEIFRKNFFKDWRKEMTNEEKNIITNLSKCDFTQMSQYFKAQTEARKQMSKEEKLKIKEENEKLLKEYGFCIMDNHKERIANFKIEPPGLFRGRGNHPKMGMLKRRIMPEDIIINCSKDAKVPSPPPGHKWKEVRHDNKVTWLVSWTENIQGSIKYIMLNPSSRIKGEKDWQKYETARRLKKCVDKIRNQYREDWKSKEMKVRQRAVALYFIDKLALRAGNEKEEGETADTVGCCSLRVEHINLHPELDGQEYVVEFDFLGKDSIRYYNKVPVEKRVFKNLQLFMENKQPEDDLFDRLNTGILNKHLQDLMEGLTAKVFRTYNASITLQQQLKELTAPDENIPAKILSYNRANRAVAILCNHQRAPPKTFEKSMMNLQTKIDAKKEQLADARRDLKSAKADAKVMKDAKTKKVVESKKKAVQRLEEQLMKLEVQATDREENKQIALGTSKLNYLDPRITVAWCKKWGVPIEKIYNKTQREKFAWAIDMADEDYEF
Description: Topo I Relaxation Assay Protocol.

Topoisomerase I [3] = target: T1, Topoisomerase I; assay: Topo I cleavage assay; type: biochemical; details: for TopI Cleave: unit not given, compound at 1, 10, 25 and 50 μM in protocol
Topoisomerase IIβ = Topoisomerase IIβ (Homo sapiens, UniProt Q02880); assay: Topo II cleavage assay; type: biochemical; details: unit not given; compound at 1, 10, 25 and 50 μM in protocol
Topoisomerase IIβ, sequence (Q02880 whole entry): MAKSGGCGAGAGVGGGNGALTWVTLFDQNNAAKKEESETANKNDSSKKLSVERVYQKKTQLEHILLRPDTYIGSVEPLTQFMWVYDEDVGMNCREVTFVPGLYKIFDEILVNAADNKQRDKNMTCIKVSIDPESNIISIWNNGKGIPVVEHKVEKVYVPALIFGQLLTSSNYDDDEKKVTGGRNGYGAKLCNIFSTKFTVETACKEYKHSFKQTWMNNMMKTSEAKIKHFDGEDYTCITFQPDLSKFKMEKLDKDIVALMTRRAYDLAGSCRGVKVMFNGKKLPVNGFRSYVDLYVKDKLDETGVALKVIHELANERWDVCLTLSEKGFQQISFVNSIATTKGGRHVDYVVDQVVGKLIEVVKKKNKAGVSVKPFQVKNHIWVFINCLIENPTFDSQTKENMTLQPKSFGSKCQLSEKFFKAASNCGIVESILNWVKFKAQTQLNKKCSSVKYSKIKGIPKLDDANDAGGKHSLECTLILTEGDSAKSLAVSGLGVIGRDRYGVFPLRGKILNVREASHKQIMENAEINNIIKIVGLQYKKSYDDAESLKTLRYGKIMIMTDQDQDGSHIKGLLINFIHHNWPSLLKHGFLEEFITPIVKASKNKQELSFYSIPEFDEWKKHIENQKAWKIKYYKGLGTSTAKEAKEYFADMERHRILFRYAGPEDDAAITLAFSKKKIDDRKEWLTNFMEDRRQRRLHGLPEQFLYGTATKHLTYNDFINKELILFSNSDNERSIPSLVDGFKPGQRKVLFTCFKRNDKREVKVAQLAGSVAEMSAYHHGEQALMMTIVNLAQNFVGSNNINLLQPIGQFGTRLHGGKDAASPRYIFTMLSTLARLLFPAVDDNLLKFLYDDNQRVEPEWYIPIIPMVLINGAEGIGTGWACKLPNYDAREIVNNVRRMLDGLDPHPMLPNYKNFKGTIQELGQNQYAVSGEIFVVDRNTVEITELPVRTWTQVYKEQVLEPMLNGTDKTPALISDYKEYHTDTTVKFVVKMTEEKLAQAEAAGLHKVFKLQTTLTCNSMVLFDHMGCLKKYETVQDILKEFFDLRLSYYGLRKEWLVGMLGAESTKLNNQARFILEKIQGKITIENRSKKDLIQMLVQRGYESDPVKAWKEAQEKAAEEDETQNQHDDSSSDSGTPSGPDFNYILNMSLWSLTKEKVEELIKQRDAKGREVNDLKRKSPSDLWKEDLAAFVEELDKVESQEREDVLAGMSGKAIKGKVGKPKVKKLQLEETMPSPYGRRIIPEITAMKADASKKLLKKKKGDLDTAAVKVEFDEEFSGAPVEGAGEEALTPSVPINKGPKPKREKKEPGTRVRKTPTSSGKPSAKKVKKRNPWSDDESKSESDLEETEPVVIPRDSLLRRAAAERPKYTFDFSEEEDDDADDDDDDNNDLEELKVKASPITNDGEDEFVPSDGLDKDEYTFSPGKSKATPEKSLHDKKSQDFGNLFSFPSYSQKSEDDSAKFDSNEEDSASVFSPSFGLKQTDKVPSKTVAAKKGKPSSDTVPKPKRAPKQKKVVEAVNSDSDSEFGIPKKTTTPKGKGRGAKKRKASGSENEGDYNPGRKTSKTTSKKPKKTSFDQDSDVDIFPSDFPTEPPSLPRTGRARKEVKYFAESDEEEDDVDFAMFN
Method: Topo II 5 μl (1-1 μg); […] Results are included in Table 3 below.

[4] = tested on: DNA: Calf thymus sodium salt; assay: DNA binding assay, Hoechst dye displacement; parameters: key: NB = Not binding; details: concentration required to displace 50% of the Hoescht Dye; 20 μM DNA, 2 μM dye
Method: The propensity of selected compounds to bind to DNA in the absence of topos was measured in order to identify compounds that would bind weakly, or not at all. […] A […] was used determine binding constants of the compound to DNA by displacement of either ethidium bromide (an intercalator) or Hoechst dye 33258 (a groove binder) which form a DNA-bound fluorescent complex measured by fluorescence spectroscopy.
DNA Binding Assay Protocol
In order to detect the strength and mode of anthraquinone compound binding to DNA the displacement of known DNA binders was detected by measuring the fluorescence of a DNA/fluorescent compound complex. The addition of known concentrations of ethidium bromide, an interchelator, and Hoescht Dye, a groove binder, cause a fluorescent DNA/binder complex that can be detected and the fluorescence quantified. The addition of anthraquinone compounds displaces the interchelators or groove binders, depending on the compound mode of DNA binding, and therefore reduces the fluorescence accordingly. The preferred binding action of compounds can be quantified by determining the reduction in fluorescence resulting from a given concentration of compound. The quantification of a compounds ability to bind to DNA is expressed, as the concentration required to displace 50% of the ethidium bromide or Hoescht Dye, thus reducing the fluorescence by 50%. Therefore, the values produced are QE50 for ethidium, bromide, or QH50 for Hoescht Dye.
Compound: 300, 60, 10 and 10/6gM (1.66 μM) solution concentrations were prepared for use in the assay to produce a range of compound. Concentrations. 100, 200 and 300 μl of each dilution were used in the assay reaction. This provides a range of concentrations: −30, 20, 10, 6, 4, 2, 1, 0.67, 0.33, 0.17, 0.11, 0.06, 0.00 μM in the assay environment. Intermediate concentrations can be utilised to enhance the accuracy of the displacement concentration determination.
Buffer: 100 mM Tris, NaCI 500 mM. DNA: Calf thymus sodium salt. Stock solution of 200 μM was prepared in 10× assay buffer. Dilution of DNA therefore provided the correct concentration of assay buffer in the assay cell.300 μg DNA was used in 3 ml reaction mixture therefore 20 μM DNA concentration. Hoescht Dye 2 μM final concentration, therefore 100 μl of a 60 μM stock solution was added to a 3 ml assay. Ethidium Bromide 2 μM final concentration therefore 100 μl of a 60 μM stock solution was added to a 3 ml assay. Distilled H2O Water was added to produce 3 ml reaction volume. Order of addition: 1. DNA, 2. Water, 3. Drug, 4. Dye
The assay was completed with both Hoescht Dye and Ethidium. Bromide for each compound. The ethidium bromide is a DNA inter-chelator, Hoescht Dye is a minor groove binder. 100, 200 and […] of the lowest compound dilution was assayed. This procedure was repeated with all further dilution's. This provided a curve of fluorescence intensity decrease with increasing compound concentration. QE50 and QH50 values were determined by extrapolating the concentration of compound at the point where the fluorescence intensity was reduced by 50%. Controls involving compound only and ethidium. bromide or Hoechst Dye without compound were carried out for each experiment. Two readings for each concentration of compound were performed per experiment, each experiment was repeated at least three times. Fluorometer: Perkin Elmer Luminescence Spectrometer LS 50B.

Structure (SMILES): C[C@H](N)C(=O)OCCCCNc1cccc2c1C(=O)c1ccccc1C2=O.O=C(O)C(F)(F)F [Example 43, 1-[4-(L-alanyloxy)butylamino]anthracene-9,10-dione trifluoroacetate]
- IC50 [1]: 2600 nM
- TopI Relax. (Topoisomerase I [2]): 25
- nicked DNA (Topoisomerase I [3]; at 100 μM): 20%
- TopI Cleave (Topoisomerase I [3]): 100
- TopIIβ Cleave. (Topoisomerase IIβ): 25
- QH50 Minor groove binding [4]: NB

Structure (SMILES): C[C@@H](N)C(=O)OCCCCNc1cccc2c1C(=O)c1ccccc1C2=O.O=C(O)C(F)(F)F [Example 45, 1-[4-(D-alanyloxy)butylamino]anthracene-9,10-dione trifluoroacetate]
- IC50 [1]: 2900 nM
- TopI Relax. (Topoisomerase I [2]): 25
- TopI Cleave (Topoisomerase I [3]): 300
- TopIIβ Cleave. (Topoisomerase IIβ): 20
- QH50 Minor groove binding [4]: NB
